Reference: US20040209915A1, “Library of biphenyl derivatives” (priority 2003, published 2004)
pEC50, pKi: −log10 of the molar value.

Columns and labels:
[1] = target: T1, human β2 adrenergic receptor (Homo sapiens, UniProt P07550); assay: Radioligand binding assay for human β2 adrenergic receptor; details: displacement of [3H]-dihydroalprenolol, CHO cell membranes
T1 construct: expressed in transfected cells

M3 muscarinic receptor = target: T2, M3 muscarinic receptor (Homo sapiens, UniProt P20309); assay: Radioligand binding assay for muscarinic receptors; details: displacement of [3H]-NMS, CHO cell membranes
T2 construct: expressed in transfected cells
Description: CHO cell lines stably expressing cloned human hM1, hM2, hM3 and hM4 muscarinic receptor subtypes, respectively, were grown to near confluency in HAM's F-12 media supplemented with 10% FBS and 250 μg/mL Geneticin. The cells were grown in a 5% CO2, 37° C. incubator and lifted with 2 mM EDTA in dPBS. […] For membrane preparation, cell pellets were resuspended in lysis buffer and homogenized with a Polytron PT-2100 tissue disrupter (Kinematica AG; 20 seconds×2 bursts). Crude membranes were centrifuged at 40,000×g for 15 minutes at 4° C. The membrane pellet was then resuspended with resuspension buffer and homogenized again with the Polytron tissue disrupter.

[2] = target: T1, human β2 adrenergic receptor; assay: Whole-cell cAMP Flashplate assay with lung epithelial cell line (BEAS-2B) endogenously expressing human β2 adrenergic receptor; assay type: cell-based; details: BEAS-2B cells
[3] = target: T1, human β2 adrenergic receptor; assay: Whole-cell cAMP Flashplate assay in CHO cell lines heterologously expressing human β2 adrenergic receptor; assay type: cell-based; details: CHO-K1 cells
Description: Cells were rinsed with PBS and detached in dPBS (Dulbecco's Phosphate Buffered Saline, without CaCl2 and MgCl2) containing 2 mM EDTA or Trypsin-EDTA solution (0.05% trypsin/0.53 mM EDTA). […] About 60,000 to 80,000 cells per well were used in this assay. Test compounds (10 mM in DMSO) were diluted into PBS containing 0.1% BSA in Beckman Biomek-2000 and tested at 11 different concentrations ranging from 100 μM to 1 pM.

T1 sequence (P07550 whole entry): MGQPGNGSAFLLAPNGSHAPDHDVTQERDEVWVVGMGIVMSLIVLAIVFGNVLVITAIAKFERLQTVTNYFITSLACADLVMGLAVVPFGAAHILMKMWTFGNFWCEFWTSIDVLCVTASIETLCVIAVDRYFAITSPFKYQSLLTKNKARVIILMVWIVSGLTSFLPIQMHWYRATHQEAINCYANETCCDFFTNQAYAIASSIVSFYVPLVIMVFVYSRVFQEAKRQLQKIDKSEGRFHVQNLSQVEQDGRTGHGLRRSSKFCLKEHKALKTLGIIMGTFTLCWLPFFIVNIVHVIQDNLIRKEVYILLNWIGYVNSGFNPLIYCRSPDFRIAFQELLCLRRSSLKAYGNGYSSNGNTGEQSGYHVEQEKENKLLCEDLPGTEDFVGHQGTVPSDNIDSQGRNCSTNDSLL
T2 sequence (P20309 whole entry): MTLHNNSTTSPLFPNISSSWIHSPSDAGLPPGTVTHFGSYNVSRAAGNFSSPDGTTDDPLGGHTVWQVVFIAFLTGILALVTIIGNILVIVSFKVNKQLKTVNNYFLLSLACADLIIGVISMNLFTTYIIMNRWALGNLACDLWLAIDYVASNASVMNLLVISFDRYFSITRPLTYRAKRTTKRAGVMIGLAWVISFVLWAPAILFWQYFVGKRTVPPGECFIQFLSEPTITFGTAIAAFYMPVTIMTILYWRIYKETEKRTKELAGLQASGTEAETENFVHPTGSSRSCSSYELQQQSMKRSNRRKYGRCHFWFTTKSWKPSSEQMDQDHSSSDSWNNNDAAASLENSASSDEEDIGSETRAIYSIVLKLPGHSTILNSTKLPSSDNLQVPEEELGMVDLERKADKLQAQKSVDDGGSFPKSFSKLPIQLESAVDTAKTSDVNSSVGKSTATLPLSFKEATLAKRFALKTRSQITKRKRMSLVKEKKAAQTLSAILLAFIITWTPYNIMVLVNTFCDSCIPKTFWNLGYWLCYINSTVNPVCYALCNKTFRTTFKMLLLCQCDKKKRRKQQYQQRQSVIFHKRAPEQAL

O=C(CCN1CCC(OC(=O)Nc2ccccc2-c2ccccc2)CC1)NCCCCCNC[C@H](O)c1ccc(O)c2[nH]c(=O)ccc12 [Example 6, Biphenyl-2-ylcarbamic Acid 1-(2-{5-[(R)-2-Hydroxy-2-(8-hydroxy-2-oxo-1,2-dihydroquinolin-5-yl)ethylamino]pentylcarbamoyl}ethyl)piperidin-4-yl Ester, Ditrifluoroacetate]
> 8.00: pKi [1] | pKi (M3 muscarinic receptor) | pEC50 [2] | pEC50 [3]
